45 molecules from US6693108B2, “Inhibitors of c-JUN N terminal kinases (JNK) and other protein kinases” (Vertex Pharmaceuticals Incorporated, priority 1999, dated 2004) can be followed below.

What is called Ki is a dissociation constant, usually derived from enzyme kinetics or from competition with a known ligand.

In the experiment the target is T1, activated JNK3 (Homo sapiens, UniProt P53779).
T1 construct: One such construct encodes amino acid residues Ser40-Glu402 of JNK3α1 and is preceded by Met and Gly residues; Met-Gly (initiation Met plus Gly added to create the NcoI site) (N); made in house; host or cells: E. coli BL21 (DE3)
T1 sequence (P53779 40-402): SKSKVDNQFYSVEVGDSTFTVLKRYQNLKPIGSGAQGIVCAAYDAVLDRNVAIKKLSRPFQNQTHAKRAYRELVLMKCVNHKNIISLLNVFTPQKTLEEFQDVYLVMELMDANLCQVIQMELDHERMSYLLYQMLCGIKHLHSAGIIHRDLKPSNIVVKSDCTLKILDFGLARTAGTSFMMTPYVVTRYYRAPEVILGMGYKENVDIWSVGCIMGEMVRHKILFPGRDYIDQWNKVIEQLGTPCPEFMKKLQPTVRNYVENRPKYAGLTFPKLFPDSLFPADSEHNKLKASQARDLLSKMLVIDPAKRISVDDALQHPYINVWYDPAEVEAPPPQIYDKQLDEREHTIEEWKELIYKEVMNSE
Put plainly: JNK3 inhibition, spectrophotometric coupled-enzyme assay. In kind it is biochemical. As to conditions: read-out: Activity in the JNK3 Inhibition Assay (Ki rating). The source says:
A BLAST search of the EST database using the published JNK3α1 cDNA as a query identified an EST clone (#632588) that contained the entire coding sequence for human JNK3α1. Polymerase chain reactions (PCR) using pfu polymerase (Strategene) were used to introduce restriction sites into the cDNA for cloning into the pET-15B expression vector at the NcoI and BamHI sites. The protein was expressed in E. coli. […] This truncation corresponds to Ser 2 of JNK1 and JNK2 proteins, and is preceded by a methionine (initiation) and a glycine residue. The glycine residue was added in order to introduce an NcoI site for cloning into the expression vector. In addition, systematic C-terminal truncations were performed by PCR to identify a construct that give rise to diffraction-quality crystals.
5 mg of JNK3 was diluted to 0.5 mg/ml in 50 mM HEPES buffer, pH 7.5, containing 100 mM NaCl, 5 mM DTT, 20 mM MgCl2 and 1 mM ATP. GST-MKK7(DD) was added at a molar ratio of 1:2.5 GST-MKK7:JNK3. After incubation for 30 minutes at 25° C., the reaction mixture was concentrated 5-fold by ultrafiltration in a Centriprep-30 (Amicon, Beverly, Mass.), diluted to 10 ml and an additional 1 mM ATP added. This procedure was repeated three times to remove ADP and replenish ATP. The final addition of ATP was 5 mM and the mixture incubated overnight at 4° C.
The activated JNK3/GST-MKK7(DD) reaction mixture was exchanged into 50 mM HEPES buffer, pH 7.5, containing 5 mM DTT and 5% glycerol (w/v) by dialysis or ultrafiltration. The reaction mixture was adjusted to 1.1 M potassium phosphate, pH 7.5, and purified by hydrophobic interaction chromatography (at 25° C.) using a Rainin Hydropore column. […] Activated JNK3 (i.e. doubly phosphorylated JNK3) was stored at −70° C. at 0.25-1 mg/ml.
Compounds were assayed for the inhibition of JNK3 by a spectrophotometric coupled-enzyme assay. In this assay, a fixed concentration of activated JNK3 (10 nM) was incubated with various concentrations of a potential inhibitor dissolved in DMSO for 10 minutes at 30° C. in a buffer containing 0.1 M HEPES buffer, pH 7.5, containing 10 mM MgCl2, 2.5 mM phosphoenolpyruvate, 200 μM NADH, 150 μg/mL pyruvate kinase, 50 μg/mL lactate dehydrogenase, and 200 μM EGF receptor peptide. […] The reaction was initiated by the addition of 10 μM ATP and the assay plate is inserted into the spectrophotometer's assay plate compartment that was maintained at 30° C. The decrease of absorbance at 340 nm was monitored as a function of time. The rate data as a function of inhibitor concentration was fitted to competitive inhibition kinetic model to determine the Ki.
Regarding `Cc1onc(-c2cccc(F)c2)c1-c1ccnc(NC(=O)c2cccc(Cl)c2)n1` [IIIA-45], the inhibition constant (Ki) is 100 to 1000 nM. With `COc1cccc(C(=O)Nc2nccc(-c3c(-c4cccc(F)c4)noc3C)n2)c1` [IIIA-46], the Ki lay within 100 to 1000 nM. As for `COc1cc(OC)cc(C(=O)Nc2nccc(-c3c(-c4cccc(F)c4)noc3C)n2)c1` [IIIA-47], the Ki was 100 to 1000 nM. On to `Cc1cccc(C(=O)Nc2nccc(-c3c(-c4cccc(F)c4)noc3C)n2)c1` [IIIA-48], for which the inhibition constant (Ki) lay within 100 to 1000 nM. As to `Cc1onc(-c2cccc(F)c2)c1-c1ccnc(NC(=O)c2ccc(F)cc2)n1` [IIIA-49], the Ki lay in the range of 100 to 1000 nM. Take `Cc1ccc(C(=O)Nc2nccc(-c3c(-c4cccc(F)c4)noc3C)n2)cc1` [IIIA-50]: the Ki lay within 100 to 1000 nM. For the molecule `Cc1onc(-c2cccc(F)c2)c1-c1ccnc(NC(=O)c2cccc(C#N)c2)n1` [IIIA-51], the inhibition constant (Ki) was in the range of 100 to 1000 nM. As to `COc1cc(C(=O)Nc2nccc(-c3c(-c4cccc(F)c4)noc3C)n2)cc(OC)c1OC` [IIIA-52], the Ki was 100 to 1000 nM. As to `Cc1onc(-c2cccc(F)c2)c1-c1ccnc(NC(=O)c2ccc3ccccc3c2)n1` [IIIA-53], the Ki fell in the range of 100 to 1000 nM. In the case of `Cc1onc(-c2ccccc2F)c1-c1ccnc(NC(=O)c2cccc(Cl)c2)n1` [IIIA-54], the inhibition constant (Ki) fell in the range of 100 to 1000 nM.

Regarding `COc1cccc(C(=O)Nc2nccc(-c3c(-c4ccccc4F)noc3C)n2)c1` [IIIA-55], the Ki is 100 to 1000 nM. As for `COc1cc(OC)cc(C(=O)Nc2nccc(-c3c(-c4ccccc4F)noc3C)n2)c1` [IIIA-56], the Ki lay in the range of 100 to 1000 nM.

As for `Cc1cccc(C(=O)Nc2nccc(-c3c(-c4ccccc4F)noc3C)n2)c1` [IIIA-57], the Ki was 100 to 1000 nM. Take `COc1ccc(C(=O)Nc2nccc(-c3c(-c4ccccc4F)noc3C)n2)cc1` [IIIA-58]: the inhibitory constant (Ki) lay in the range of 100 to 1000 nM.

`Cc1onc(-c2ccccc2F)c1-c1ccnc(NC(=O)c2ccc(F)cc2)n1` [IIIA-59]: the Ki fell in the range of 100 to 1000 nM. As for `Cc1ccc(C(=O)Nc2nccc(-c3c(-c4ccccc4F)noc3C)n2)cc1` [IIIA-60], the inhibitory constant (Ki) fell in the range of 100 to 1000 nM. Regarding `Cc1onc(-c2ccccc2F)c1-c1ccnc(NC(=O)c2cccc(C#N)c2)n1` [IIIA-61], the Ki lay in the range of 100 to 1000 nM. In the case of `COc1cc(C(=O)Nc2nccc(-c3c(-c4ccccc4F)noc3C)n2)cc(OC)c1OC` [IIIA-62], the Ki was in the range of 100 to 1000 nM. `Cc1onc(-c2ccccc2F)c1-c1ccnc(NC(=O)c2ccc3ccccc3c2)n1` [IIIA-63]: the Ki was in the range of 100 to 1000 nM. As for `Cc1onc(-c2c(F)cccc2F)c1-c1ccnc(NC(=O)c2cccc(Cl)c2)n1` [IIIA-64], the inhibition constant Ki lay in the range of 100 to 1000 nM. On to `COc1cccc(C(=O)Nc2nccc(-c3c(-c4c(F)cccc4F)noc3C)n2)c1` [IIIA-65], for which the Ki was 100 to 1000 nM.

`COc1cc(OC)cc(C(=O)Nc2nccc(-c3c(-c4c(F)cccc4F)noc3C)n2)c1` [IIIA-66]: the Ki lay in the range of 100 to 1000 nM. For the molecule `Cc1cccc(C(=O)Nc2nccc(-c3c(-c4c(F)cccc4F)noc3C)n2)c1` [IIIA-67], the Ki is 100 to 1000 nM. Regarding `COc1ccc(C(=O)Nc2nccc(-c3c(-c4c(F)cccc4F)noc3C)n2)cc1` [IIIA-68], the Ki is 100 to 1000 nM. Turning to `Cc1onc(-c2c(F)cccc2F)c1-c1ccnc(NC(=O)c2ccc(F)cc2)n1` [IIIA-69], the inhibition constant Ki fell in the range of 100 to 1000 nM. As to `Cc1ccc(C(=O)Nc2nccc(-c3c(-c4c(F)cccc4F)noc3C)n2)cc1` [IIIA-70], the Ki fell in the range of 100 to 1000 nM. For the molecule `Cc1onc(-c2c(F)cccc2F)c1-c1ccnc(NC(=O)c2cccc(C#N)c2)n1` [IIIA-71], the Ki lay in the range of 100 to 1000 nM. With `COc1cc(C(=O)Nc2nccc(-c3c(-c4c(F)cccc4F)noc3C)n2)cc(OC)c1OC` [IIIA-72], the Ki was 100 to 1000 nM.

Regarding `Cc1onc(-c2c(F)cccc2F)c1-c1ccnc(NC(=O)c2ccc3ccccc3c2)n1` [IIIA-73], the inhibitory constant (Ki) is 100 to 1000 nM. Turning to `Cc1onc(-c2ccccc2)c1-c1ccnc(NC(=O)c2cccc([N+](=O)[O-])c2)n1` [IIIA-74], the Ki is less than 100 nM. For the molecule `CC(=O)Nc1cccc(C(=O)Nc2nccc(-c3c(-c4ccccc4)noc3C)n2)c1` [IIIA-75], the Ki lay in the range of 100 to 1000 nM. As for `CC(=O)Nc1nccc(-c2c(-c3ccccc3)noc2C)n1` [XA-1], the Ki was 100 to 1000 nM. Regarding `CC(=O)Nc1nccc(-c2c(-c3ccc(F)cc3)noc2C)n1` [XA-2], the Ki was greater than 1000 nM. As to `Cc1onc(-c2ccccc2)c1-c1ccnc(NC(=O)C2CCCC2)n1` [XA-3], the Ki fell in the range of 100 to 1000 nM. Consider `Cc1onc(-c2ccccc2)c1-c1ccnc(NC(=O)CC(C)C)n1` [XA-4], for which the Ki was 100 to 1000 nM. With `CCCC(=O)Nc1nccc(-c2c(-c3ccccc3)noc2C)n1` [XA-5], the Ki was 100 to 1000 nM. For `OCc1onc(-c2ccc(F)cc2)c1-c1ccnc(NC2CCCCC2)n1` [XIA-45, [4-(2-Cyclohexylamino-pyrimidin-4-yl)-3-(4-fluoro-phenyl)-isoxazol-5-yl]methanol], the Ki was less than 100 nM. Consider `OCc1onc(-c2ccc(F)cc2)c1-c1ccnc(NCCc2ccccn2)n1` [XIA-46], for which the Ki is less than 100 nM. As for `COCc1onc(-c2ccc(F)cc2)c1-c1ccnc(NC2CCCCC2)n1` [XIA-47], the inhibitory constant (Ki) is less than 100 nM. In the case of `CCOCc1onc(-c2ccc(F)cc2)c1-c1ccnc(NC2CCCCC2)n1` [XIA-48], the inhibition constant (Ki) was less than 100 nM. For `COCCOCc1onc(-c2ccc(F)cc2)c1-c1ccnc(NC2CCCCC2)n1` [XIA-49], the inhibition constant Ki was less than 100 nM. For `Fc1ccc(-c2noc(COC3CCOC3)c2-c2ccnc(NC3CCCCC3)n2)cc1` (stereo not drawn) [XIA-50] the value was less than 100 nM. On to `O=S1(=O)CCC(OCc2onc(-c3ccc(F)cc3)c2-c2ccnc(NC3CCCCC3)n2)C1` (stereo not drawn) [XIA-51], for which the Ki is less than 100 nM. Consider `Fc1ccc(-c2noc(COCc3ccccc3)c2-c2ccnc(NC3CCCCC3)n2)cc1` [XIA-52], for which the Ki was less than 100 nM. Consider `Fc1ccc(-c2noc(COCc3ccccc3)c2-c2ccnc(NCCc3ccccn3)n2)cc1` [XIA-53], for which the Ki is less than 100 nM.
